Laboratory results reported in ChEMBL document CHEMBL5038606 (J Med Chem, 2022).
Converted amounts (≈) assume the structure as drawn. The source made the active and inactive calls. No cut-off for these calls is given here.

Experiments:
Coagulation factor XI = Coagulation factor XI (Homo sapiens, UniProt P03951); test: Binding affinity to human coagulation factor 11a using L-Pyroglutamyl-L-prolyl-L-arginine p-Nitroaniline as substrate assessed as inhibition constant measured upto 120 mins by spectrophotometric analysis
Chymotrypsin = Chymotrypsin (Homo sapiens, UniProt Q99895+P17538+P40313+Q6GPI1); test: Binding affinity to human chymotrypsin assessed as inhibition constant using 3-Carbomethoxypropionyl-L-arginyl-Lprolyl-L-tyrosine p-Nitroaniline as substrate measured upto 120 mins by spectrophotometric analysis; type: protein assay
[1] = Fraction unbound in human plasma; type: ADME, cell-free
[2] = Clearance in cynomolgus monkey at 1.50 mg/kg, po or 0.50 mg/kg, iv; type: ADME, organism-based, Macaca fascicularis; conditions: in vivo, dose 1.5 mg/kg
[3] = Volume of distribution at steady state in cynomolgus monkey at 1.50 mg/kg, po or 0.50 mg/kg, iv; type: ADME, organism-based, Macaca fascicularis; conditions: in vivo, dose 1.5 mg/kg, read-out: Vdss
[4] = Protein binding in cynomolgus monkey plasma; type: ADME, cell-free, Macaca fascicularis; conditions: read-out: PPB (converted)
Plasma = test: Anticoagulant activity in human plasma assessed as activated partial thromboplastin time; type: functional
[5] = Metabolic stability in human liver microsomes assessed as half life; type: ADME, Microsome
[6] = Metabolic stability in Sprague-Dawley rat liver microsomes assessed as half life; type: ADME, Microsome; parameters: dose or concentration left out as unconfirmed
[7] = Protein binding in Sprague-Dawley rat plasma assessed as bound fraction; type: ADME, cell-free; parameters: dose or concentration left out as unconfirmed
[8] = Clearance in Sprague-Dawley rat at 1.04 mg/kg, po or 0.52 mg/kg, iv; type: ADME, organism-based; conditions: in vivo
[9] = Half life in Sprague-Dawley rat at 1.04 mg/kg, po or 0.52 mg/kg, iv; type: ADME, organism-based; conditions: in vivo
[10] = Volume of distribution at steady state in Sprague-Dawley rat at 1.04 mg/kg, po or 0.52 mg/kg, iv; type: ADME, organism-based; conditions: in vivo, read-out: Vdss
Homo sapiens [11] = species: Homo sapiens; test: Inhibition of Phosphodiesterase (unknown origin) at 16 to 94 ug/ml; conditions: dose 16-94 µg/ml
Homo sapiens [12] = species: Homo sapiens; test: Inhibition of Monoamine oxidase (unknown origin) at 16 to 94 ug/ml; conditions: dose 16-94 µg/ml
[13] = target: Acetylcholinesterase (Homo sapiens) (UniProt P22303); test: Inhibition of acetylcholinesterase (unknown origin) at 16 to 94 ug/ml; conditions: dose 16-94 µg/ml
[14] = AUC in Sprague-Dawley rat at 1.04 mg/kg, po; type: ADME, organism-based; parameters: dose 1.04 mg/kg; conditions: in vivo
[15] = Oral bioavailability in Sprague-Dawley rat at 1.04 mg/kg; type: ADME, organism-based; conditions: in vivo
[16] = Half life in cynomolgus monkey at 1.50 mg/kg, po or 0.50 mg/kg, iv; type: ADME, organism-based, Macaca fascicularis; conditions: in vivo, dose 1.5 mg/kg
[17] = Metabolic stability in cynomolgus monkey liver microsomes assessed as half life; type: ADME, Macaca fascicularis, Microsome; parameters: dose or concentration left out as unconfirmed
[18] = Oral bioavailability in cynomolgus monkey at 1.50 mg/kg; type: ADME, organism-based, Macaca fascicularis; conditions: in vivo, dose 1.5 mg/kg
[19] = AUC in cynomolgus monkey at 1.50 mg/kg, po; type: ADME, organism-based, Macaca fascicularis; parameters: dose 1.5 mg/kg; conditions: in vivo, 1.5 mg/kg
[20] = Aqueous solubility of the compound at pH 6.5; type: physicochemical; conditions: aqueous medium
[21] = Aqueous solubility of the compound at pH 1.0; type: physicochemical; conditions: aqueous medium
[22] = Fraction unbound in Sprague-Dawley rat plasma; type: ADME, cell-free
Coagulation factor VII = Coagulation factor VII (Homo sapiens, UniProt P08709); test: Binding affinity to recombinant human coagulation factor 7a assessed as inhibition constant using N-alpha-Benzyloxycarbonyl-D-arginyl-glycyl-Larginine p-Nitroaniline as substrate measured upto 120 mins by coupled enzyme assay
Coagulation factor IX = Coagulation factor IX (Homo sapiens, UniProt P00740); test: Binding affinity to human coagulation factor 9a assessed as inhibition constant using Methylsulfonyl-D-cyclohexylglycyl-glycylarginine 7-amino-4-methylcoumarin as substrate measured upto 120 mins by spectrofluorometric analysis
Coagulation factor X = Coagulation factor X (Homo sapiens, UniProt P00742); test: Binding affinity to human coagulation factor 10a assessed as inhibition constant using N-Benzoyl-L-isoleucyl-L-glutamyl-glycyl-Larginine p-Nitroaniline and its gamma glutamyl methyl ester as substrate measured upto 120 mins by spectrophotometric analysis
Coagulation factor XII = Coagulation factor XII (Homo sapiens, UniProt P00748); test: Binding affinity to human coagulation factor 12a assessed as inhibition constant using H-D-Cyclohexylalanyl-glycyl-arginyl p-Nitroaniline as substrate measured upto 120 mins by spectrophotometric analysis
Kallikrein-1 = Kallikrein-1 (Homo sapiens, UniProt P06870); test: Binding affinity to human tissue kallikrein-1 assessed as inhibition constant using H-D-Valyl-L-leucyl-L-arginine 7-amino-4-trifluoromethylcoumarin as substrate measured upto 120 mins by spectrofluorometric analysis; type: tissue-based
Trypsin = Trypsin (Homo sapiens, UniProt P07477+P07478+P35030); test: Binding affinity to human trypsin assessed as inhibition constant using N-Benzoyl-L-isoleucyl-L-glutamyl-glycyl-Larginine p-Nitroaniline and its gamma glutamyl methyl ester as substrate measured upto 120 mins by spectrophotometric analysis; type: protein assay
[23] = target: Vitamin K-dependent protein C (Homo sapiens, UniProt P04070); test: Binding affinity to human activated protein C assessed as inhibition constant using L-Pyroglutamyl-L-prolyl-L-arginine p-Nitroaniline as substrate measured upto 120 mins by spectrophotometric analysis
Plasminogen = Plasminogen (Homo sapiens, UniProt P00747); test: Binding affinity to human plasmin assessed as inhibition constant using H-D-Valyl-L-leucyl-L-lysine p-Nitroaniline as substrate measured upto 120 mins by spectrophotometric analysis
[24] = target: Tissue-type plasminogen activator (Homo sapiens, UniProt P00750); test: Binding affinity to human tissue type plasminogen assessed as inhibition constant using Methanesulfonyl-D-Cyclohexylalanyl-glycylarginine p-Nitroaniline as substrate measured upto 120 mins by spectrophotometric analysis
[25] = target: Urokinase-type plasminogen activator (Homo sapiens, UniProt P00749); test: Binding affinity to human urokinase assessed as inhibition constant using L-Pyroglutamyl-glycyl-L-arginine p-Nitroaniline as substrate upto 120 mins by spectrophotometric analysis
Neutrophil elastase = Neutrophil elastase (Homo sapiens, UniProt P08246); test: Binding affinity to human neutrophil elastase assessed as inhibition constant using Methoxysuccinyl-L-alanyl-L-alanyl-L-prolylL-valine p-Nitroaniline as substrate measured upto 120 mins by spectrophotometric analysis
Cathepsin G = Cathepsin G (Homo sapiens, UniProt P08311); test: Binding affinity to human neutrophil cathepsin G assessed as inhibition constant using Succinyl-L-alanyl-L-alanyl-L-prolyl-Lphenylalanine p-Nitroaniline as substrate measured upto 120 mins by spectrophotometric analysis
Myeloblastin = Myeloblastin (Homo sapiens, UniProt P24158); test: Binding affinity to human neutrophil proteinase 3 assessed as inhibition constant using Methoxysuccinyl-L-alanyl-L-alanyl-L-prolylL-valine p-Nitroaniline as substrate measured upto 120 mins by spectrophotometric analysis
Chymase = Chymase (Homo sapiens, UniProt P23946); test: Binding affinity to human mast cell chymase assessed as inhibition constant using Succinyl-L-alanyl-L-alanyl-L-prolyl-L phenylalanine p-Nitroaniline as substrate measured upto 120 mins by spectrophotometric analysis
Oryctolagus cuniculus = test: Antithrombotic activity in New Zealand White rabbit model of electrically-induced carotid artery thrombosis assessed as inhibition of thrombosis formation by measuring increase in bleeding time administered as iv bolus dose and subsequently administered as iv infusion 30 mins prior to injury; type: functional, organism-based

Sequence of Coagulation factor XI (P03951 19-387 limits assumed): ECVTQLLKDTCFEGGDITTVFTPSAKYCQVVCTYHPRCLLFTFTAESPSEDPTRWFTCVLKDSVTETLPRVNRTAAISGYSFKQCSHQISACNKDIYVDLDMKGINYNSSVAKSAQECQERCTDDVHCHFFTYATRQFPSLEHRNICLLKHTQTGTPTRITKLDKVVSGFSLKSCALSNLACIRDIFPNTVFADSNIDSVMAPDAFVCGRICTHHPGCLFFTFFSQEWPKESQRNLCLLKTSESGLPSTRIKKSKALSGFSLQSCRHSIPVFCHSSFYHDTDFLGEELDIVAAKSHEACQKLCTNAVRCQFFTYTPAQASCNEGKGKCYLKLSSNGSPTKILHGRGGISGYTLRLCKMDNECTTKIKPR
Sequence of Coagulation factor XI (P03951 388-625 limits assumed): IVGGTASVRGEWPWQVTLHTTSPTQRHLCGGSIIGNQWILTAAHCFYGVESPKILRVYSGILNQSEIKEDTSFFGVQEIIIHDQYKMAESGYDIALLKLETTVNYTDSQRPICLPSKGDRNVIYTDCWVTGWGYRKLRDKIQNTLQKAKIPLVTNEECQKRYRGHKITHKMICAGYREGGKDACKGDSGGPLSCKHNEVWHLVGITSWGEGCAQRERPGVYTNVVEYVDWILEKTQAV
Sequence of Neutrophil elastase (P08246 whole entry): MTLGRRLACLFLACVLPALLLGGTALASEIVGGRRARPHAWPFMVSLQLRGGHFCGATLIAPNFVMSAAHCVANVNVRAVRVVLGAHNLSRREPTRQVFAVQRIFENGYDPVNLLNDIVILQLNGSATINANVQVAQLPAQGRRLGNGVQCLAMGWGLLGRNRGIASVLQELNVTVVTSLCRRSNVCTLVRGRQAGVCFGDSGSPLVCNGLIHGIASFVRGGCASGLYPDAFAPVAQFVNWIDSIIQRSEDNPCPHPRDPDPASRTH
Sequence of Coagulation factor VII (P08709 61-212 limits assumed): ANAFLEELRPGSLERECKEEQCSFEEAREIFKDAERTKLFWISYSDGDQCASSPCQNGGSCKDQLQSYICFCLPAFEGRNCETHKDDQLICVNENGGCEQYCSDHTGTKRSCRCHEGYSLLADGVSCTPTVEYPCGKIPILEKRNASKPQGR
Sequence of Coagulation factor VII (P08709 213-466 limits assumed): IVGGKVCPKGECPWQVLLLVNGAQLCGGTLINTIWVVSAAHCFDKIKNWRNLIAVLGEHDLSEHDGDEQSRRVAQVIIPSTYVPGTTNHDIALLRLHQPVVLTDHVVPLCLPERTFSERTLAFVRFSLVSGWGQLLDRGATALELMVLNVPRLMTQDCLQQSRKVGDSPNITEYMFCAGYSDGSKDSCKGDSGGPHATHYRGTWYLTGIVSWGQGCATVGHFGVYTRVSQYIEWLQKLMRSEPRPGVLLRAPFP
Sequence of Coagulation factor XII (P00748 20-372 limits assumed): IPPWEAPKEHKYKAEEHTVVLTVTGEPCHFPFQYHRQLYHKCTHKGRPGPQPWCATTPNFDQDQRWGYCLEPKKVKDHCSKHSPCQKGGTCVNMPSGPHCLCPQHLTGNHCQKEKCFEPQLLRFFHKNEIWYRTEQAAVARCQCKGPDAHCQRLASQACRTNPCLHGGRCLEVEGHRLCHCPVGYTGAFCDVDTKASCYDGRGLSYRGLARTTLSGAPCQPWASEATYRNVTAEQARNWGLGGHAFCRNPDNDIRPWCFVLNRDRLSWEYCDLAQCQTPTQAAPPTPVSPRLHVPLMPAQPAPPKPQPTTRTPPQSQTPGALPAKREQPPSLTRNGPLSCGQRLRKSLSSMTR
Sequence of Coagulation factor XII (P00748 373-615 limits assumed): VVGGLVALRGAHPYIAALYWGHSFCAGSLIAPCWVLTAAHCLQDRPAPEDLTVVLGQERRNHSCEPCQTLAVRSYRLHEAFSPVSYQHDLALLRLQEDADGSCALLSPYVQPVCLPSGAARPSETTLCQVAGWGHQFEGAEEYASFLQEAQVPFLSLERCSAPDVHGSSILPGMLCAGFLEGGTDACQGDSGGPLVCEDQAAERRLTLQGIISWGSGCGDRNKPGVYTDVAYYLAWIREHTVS
Sequence of Chymase (P23946 whole entry, the tested form may be a part): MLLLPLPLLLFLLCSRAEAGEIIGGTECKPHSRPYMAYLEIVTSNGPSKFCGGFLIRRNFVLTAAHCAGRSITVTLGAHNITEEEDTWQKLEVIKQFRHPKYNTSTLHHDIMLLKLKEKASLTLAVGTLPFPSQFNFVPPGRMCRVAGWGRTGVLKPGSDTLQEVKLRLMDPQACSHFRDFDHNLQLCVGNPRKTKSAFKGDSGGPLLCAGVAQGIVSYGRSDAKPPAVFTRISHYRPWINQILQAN
Sequence of Vitamin K-dependent protein C (P04070 43-197 limits assumed): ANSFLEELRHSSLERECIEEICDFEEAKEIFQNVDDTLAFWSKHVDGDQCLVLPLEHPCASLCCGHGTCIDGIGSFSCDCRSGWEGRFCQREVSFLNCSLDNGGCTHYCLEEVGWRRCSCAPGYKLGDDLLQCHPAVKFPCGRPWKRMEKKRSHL
Sequence of Vitamin K-dependent protein C (P04070 212-461 limits assumed): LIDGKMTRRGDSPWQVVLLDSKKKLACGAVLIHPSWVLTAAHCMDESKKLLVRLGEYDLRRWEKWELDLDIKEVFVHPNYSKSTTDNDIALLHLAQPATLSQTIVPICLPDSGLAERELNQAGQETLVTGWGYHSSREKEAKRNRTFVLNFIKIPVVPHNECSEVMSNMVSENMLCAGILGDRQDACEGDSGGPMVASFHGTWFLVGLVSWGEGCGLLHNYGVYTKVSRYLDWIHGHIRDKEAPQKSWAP
Sequence of Cathepsin G (P08311 whole entry): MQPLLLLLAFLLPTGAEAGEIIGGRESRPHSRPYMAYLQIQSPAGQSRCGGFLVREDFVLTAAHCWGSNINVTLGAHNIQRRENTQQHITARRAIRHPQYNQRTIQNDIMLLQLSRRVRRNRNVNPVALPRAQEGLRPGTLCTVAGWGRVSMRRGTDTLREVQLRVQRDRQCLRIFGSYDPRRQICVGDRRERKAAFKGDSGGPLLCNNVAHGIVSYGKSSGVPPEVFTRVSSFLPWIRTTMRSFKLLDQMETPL
Sequence of Coagulation factor IX (P00740 47-191 limits assumed): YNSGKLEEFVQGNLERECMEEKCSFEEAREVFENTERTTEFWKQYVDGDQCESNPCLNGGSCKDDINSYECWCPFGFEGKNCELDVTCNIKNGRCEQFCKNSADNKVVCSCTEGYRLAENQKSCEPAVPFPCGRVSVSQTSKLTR
Sequence of Coagulation factor IX (P00740 227-461 limits assumed): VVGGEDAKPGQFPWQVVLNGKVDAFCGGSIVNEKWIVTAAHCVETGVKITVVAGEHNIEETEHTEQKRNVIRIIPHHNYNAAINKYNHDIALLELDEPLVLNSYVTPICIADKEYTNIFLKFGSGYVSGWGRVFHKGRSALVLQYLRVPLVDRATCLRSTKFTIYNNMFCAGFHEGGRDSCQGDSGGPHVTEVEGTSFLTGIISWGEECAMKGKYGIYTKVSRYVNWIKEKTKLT
Sequence of Kallikrein-1 (P06870 whole entry): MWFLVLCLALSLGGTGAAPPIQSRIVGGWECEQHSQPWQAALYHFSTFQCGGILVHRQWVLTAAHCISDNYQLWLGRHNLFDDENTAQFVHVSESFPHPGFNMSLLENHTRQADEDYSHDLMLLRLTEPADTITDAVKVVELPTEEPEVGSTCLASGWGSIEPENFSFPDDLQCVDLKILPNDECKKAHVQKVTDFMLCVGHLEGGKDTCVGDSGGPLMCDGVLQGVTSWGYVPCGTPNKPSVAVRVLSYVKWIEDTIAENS
Sequence of Acetylcholinesterase (Homo sapiens) (P22303 whole entry): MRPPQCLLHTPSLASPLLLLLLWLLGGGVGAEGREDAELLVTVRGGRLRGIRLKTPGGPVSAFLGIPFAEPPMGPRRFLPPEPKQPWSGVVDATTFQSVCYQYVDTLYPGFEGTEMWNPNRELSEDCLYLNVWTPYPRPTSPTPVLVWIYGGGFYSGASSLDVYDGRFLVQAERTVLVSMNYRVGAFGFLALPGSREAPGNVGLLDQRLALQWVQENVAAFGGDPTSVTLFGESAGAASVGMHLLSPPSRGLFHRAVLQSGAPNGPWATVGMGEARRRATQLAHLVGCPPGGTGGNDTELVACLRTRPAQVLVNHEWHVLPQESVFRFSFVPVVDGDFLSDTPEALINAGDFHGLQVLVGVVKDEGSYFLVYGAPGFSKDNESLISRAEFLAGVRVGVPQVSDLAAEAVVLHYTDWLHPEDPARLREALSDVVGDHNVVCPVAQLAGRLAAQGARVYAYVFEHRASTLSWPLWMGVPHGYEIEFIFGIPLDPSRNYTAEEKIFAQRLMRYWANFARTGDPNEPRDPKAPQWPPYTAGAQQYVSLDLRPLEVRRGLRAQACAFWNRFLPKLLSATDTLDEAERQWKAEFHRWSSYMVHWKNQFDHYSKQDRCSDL
Sequence of Myeloblastin (P24158 whole entry): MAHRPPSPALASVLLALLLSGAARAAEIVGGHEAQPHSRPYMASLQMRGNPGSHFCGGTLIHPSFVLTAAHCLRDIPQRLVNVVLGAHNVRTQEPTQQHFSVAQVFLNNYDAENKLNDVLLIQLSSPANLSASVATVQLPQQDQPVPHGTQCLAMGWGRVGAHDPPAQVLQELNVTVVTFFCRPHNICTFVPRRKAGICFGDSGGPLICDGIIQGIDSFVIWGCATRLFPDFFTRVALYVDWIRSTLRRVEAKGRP
Sequence of Coagulation factor X (P00742 41-179 limits assumed): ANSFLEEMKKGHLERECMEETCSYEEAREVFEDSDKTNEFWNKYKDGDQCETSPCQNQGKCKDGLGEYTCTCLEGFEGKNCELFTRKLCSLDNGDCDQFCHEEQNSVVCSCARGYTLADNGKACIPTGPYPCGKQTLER
Sequence of Coagulation factor X (P00742 235-488 limits assumed): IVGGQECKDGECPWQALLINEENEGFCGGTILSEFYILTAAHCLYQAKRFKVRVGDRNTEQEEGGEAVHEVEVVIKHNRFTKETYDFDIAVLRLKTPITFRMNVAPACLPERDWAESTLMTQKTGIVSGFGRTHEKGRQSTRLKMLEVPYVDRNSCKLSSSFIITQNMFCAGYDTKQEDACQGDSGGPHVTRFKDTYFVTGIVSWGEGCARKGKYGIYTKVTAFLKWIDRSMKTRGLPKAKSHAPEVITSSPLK

C[C@@H]1CCC[C@H](N2CCC(c3c(F)ccc(Cl)c3F)=CC2=O)c2cc(ccn2)-c2nn(C)cc2NC1=O
Ki (Coagulation factor XI): 0.171 µM

C[C@@H]1CCC[C@H](n2cnc(-c3cc(Cl)ccc3-n3cc(Cl)nn3)cc2=O)c2cc(ccn2)-c2c(cnn2C(F)F)NC1=O [MILVEXIAN]
Ki (Chymotrypsin): 0.035 µM
fraction unbound [1]: 0.085
clearance [2]: 0.618 L/h/kg
Vd [3]: 2.2 L/kg
fraction unbound [4]: 0.109
EC1.5 (Plasma): 0.5 µM
half-life [5]: > 2 h
half-life [6]: > 2 h
fraction unbound [7]: 0.029
clearance [8]: 0.426 L/h/kg
half-life [9]: 1.4 h
Vd [10]: 0.9 L/kg
inhibition (Homo sapiens [11]): inactive
inhibition (Homo sapiens [12]): inactive
inhibition [13]: inactive
AUC [14]: 700 nM·h
bioavailability [15]: 18%
half-life [16]: 2.7 h
half-life [17]: 1.38 h
bioavailability [18]: 32%
AUC [19]: 1220 nM·h
solubility [20]: 6 µg/mL (≈ 9.58 µM)
solubility [21]: 8 µg/mL (≈ 12.8 µM)
fraction unbound [22]: 0.029
Ki (Coagulation factor VII): 1.2 µM
Ki (Coagulation factor IX): > 27 µM
Ki (Coagulation factor X): > 13 µM
Ki (Coagulation factor XII): > 3 µM
Ki (Kallikrein-1): > 11 µM
Ki (Trypsin): 0.72 µM
Ki [23]: > 21 µM
Ki (Plasminogen): 2.65 µM
Ki [24]: 2.3 µM
Ki [25]: 3.9 µM
Ki (Neutrophil elastase): > 8 µM
Ki (Cathepsin G): > 20 µM
Ki (Myeloblastin): > 12 µM
Ki (Chymase): > 13 µM

C[C@@H]1CCC[C@H](N2CCC(c3c(F)ccc(Cl)c3F)=CC2=O)c2cc(ccn2)-c2cn[nH]c2NC1=O
Ki (Coagulation factor XI): 0.33 µM

COC(=O)Nc1ccc2c(c1)NC(=O)[C@H](C)CCC[C@H](N1CCC(c3c(F)ccc(Cl)c3F)=CC1=O)c1cc-2ccn1
EC50 (Oryctolagus cuniculus): 0.375 µM

C[C@@H]1CCC[C@H](N2CCC(c3cc(Cl)ccc3-n3ccnn3)=CC2=O)c2cc(ccn2)-c2c(cnn2C2CC2)NC1=O
Ki (Coagulation factor XI): 0.0011 µM
EC1.5 (Plasma): 0.49 µM
half-life [5]: 0.0833 h

C[C@@H]1CCC[C@H](N2CCC(c3cc(Cl)ccc3-n3ccnc3)=CC2=O)c2cc(ccn2)-c2c(cnn2C)NC1=O
Ki (Coagulation factor XI): 0.0027 µM
EC1.5 (Plasma): 0.6 µM

C[C@@H]1CCC[C@H](N2CCC(c3cc(Cl)ccc3-n3ccnn3)=CC2=O)c2cc(ccn2)-c2c(cnn2CC(F)F)NC1=O
Ki (Coagulation factor XI): 0.011 µM
EC1.5 (Plasma): 1.54 µM
half-life [5]: 1.27 h

C[C@@H]1CCC[C@H](N2CCC(c3cc(Cl)ccc3-n3ccnn3)=CC2=O)c2cc(ccn2)-c2c(cnn2C)NC1=O
EC1.5 (Plasma): 0.36 µM
half-life [5]: 1.13 h

C[C@@H]1CCC[C@H](n2cnc(-c3cc(Cl)ccc3-n3cc(Cl)nn3)cc2=O)c2cc(ccn2)-c2c(cnn2C)NC1=O
EC1.5 (Plasma): 0.3 µM
half-life [5]: 1.93 h
